The results in this text go back to ChEMBL document CHEMBL5126645, “Cancer-Cell-Selective Targeting by Arylcyclopropylamine-Vorinostat Conjugates” (ACS Med Chem Lett, 2022).

Molecules are shown by their SMILES. The source made the active and inactive calls. The rule behind the calls is not given here.

The subject of series [1] is MDA-MB-231. Description: cells. Format: functional. As to conditions: Homo sapiens, MDA-MB-231, 72 h; time 3 day.
Description: Antiproliferative activity against human MDA-MB-231 cells assessed as inhibition of cell growth incubated for 3 days by alamar blue assay
Series [2] in a line: in vitro. As to conditions: human, HMEC cells.
Description: Cytotoxicity against HMEC cells assessed as inhibition of cell growth incubated for 3 days by alamar blue assay
For series [3], the target named is T1, Lysine-specific histone demethylase 1A (Homo sapiens, UniProt O60341). Description: Prodrug conversion assessed as LSD1 (unknown origin)-mediated vorinostat release incubated for 24 hrs by HPLC analysis. Type of series: ADME.
A short description of series [4]: Stability of compound in buffer at pH 7.4. Format: physicochemical.
For series [5], the target named is T1, Lysine-specific histone demethylase 1A. Description: Potency index, ratio of phenylcyclopropylamine IC50 to test compound IC50 for inhibition of LSD1 (unknown origin) using H3K4me2 peptide as substrate preincubated for 15 mins followed by substrate addition and measured after 30 mins by fluorescence based analysis. To be noted: time 45.0 min.
Series [6] in a line: in vitro. To be noted: human, HMEC cells versus MDA-MB-231 cells.
Description: Selectivity index, ratio of IC50 for cytotoxicity against HMEC cells to GI50 for antiproliferative activity against human MDA-MB-231 cells
Series [7] addresses T1, Lysine-specific histone demethylase 1A.
Description: Inhibition of LSD1 (unknown origin) using H3K4me2 peptide as substrate preincubated for 15 mins followed by substrate addition and measured after 30 mins by fluorescence based analysis
Series [8] concerns MDA-MB-231. Description: Synergistic antiproliferative activity against human MDA-MB-231 cells assessed as inhibition of cell growth incubated for 3 days in presence of vorinostat by alamar blue assay. Format: functional, cell-based. As to conditions: time 3.0 day. On the technique in general: Resazurin is reduced to fluorescent resorufin, in cell work by metabolically active cells.

A further series deals with NCI-H526. Briefly: cells. To be noted: Homo sapiens, NCI-H526, 72 h; time 3 day. Format: functional.
Series [9] in a line: in vitro. As to conditions: human, HMEC cells versus NCI-H526 cells.
Description: Selectivity index, ratio of IC50 for cytotoxicity against HMEC cells to GI50 for antiproliferative activity against human NCI-H526 cells
For series [10], the target named is Histone deacetylase 1 (Homo sapiens) (UniProt Q13547). Description: Potency index, ratio of vorinostat IC50 to test compound IC50 for inhibition of HDAC1 human NCI-H526 cells measured after 24 to 72 hrs by Western blot analysis. As to conditions: time 24-72 hrs. Format: cell-based.
Series [11] has as its system MDA-MB-231. Briefly: Synergistic antiproliferative activity against human MDA-MB-231 cells assessed as inhibition of cell growth incubated for 3 days in presence of LSD1 inhibitor, NCD38 by alamar blue assay. Format: functional, cell-based. To be noted: time 3.0 day.
Series [12] deals with Histone deacetylase 1 (Homo sapiens) (UniProt Q13547). Description: Inhibition of HDAC1 in human NCI-H526 cells assessed as increase in H3K4 methylation at 16 uM measured after 24 to 72 hrs by Western blot analysis. Format: cell-based. As to conditions: time 24-72 hrs.
Series [13] has the same target. Briefly: Inhibition of HDAC1 in human NCI-H526 cells assessed as increase in H3K9 acetylation at 16 uM measured after 24 to 72 hrs by Western blot analysis. Format: cell-based. To be noted: time 24-72 hrs. In general terms: A western blot detects proteins with antibodies after separation by electrophoresis.
The subject of series [14] is MDA-MB-231. Description: Additive antiproliferative activity against human MDA-MB-231 cells assessed as inhibition of cell growth incubated for 3 days in presence of 4-(Chloromethyl)phenyl acetate by alamar blue assay. Type of series: functional, cell-based. To be noted: time 3.0 day.
Series [15] in a line: Stability of compound in HEPES buffer at pH 7.4 at 100 uM incubated for 24 hrs by HPLC analysis. As to conditions: pH 7.4, 24 h. Type of series: physicochemical.

Chain of Histone deacetylase 1 (Homo sapiens) (Q13547 whole entry): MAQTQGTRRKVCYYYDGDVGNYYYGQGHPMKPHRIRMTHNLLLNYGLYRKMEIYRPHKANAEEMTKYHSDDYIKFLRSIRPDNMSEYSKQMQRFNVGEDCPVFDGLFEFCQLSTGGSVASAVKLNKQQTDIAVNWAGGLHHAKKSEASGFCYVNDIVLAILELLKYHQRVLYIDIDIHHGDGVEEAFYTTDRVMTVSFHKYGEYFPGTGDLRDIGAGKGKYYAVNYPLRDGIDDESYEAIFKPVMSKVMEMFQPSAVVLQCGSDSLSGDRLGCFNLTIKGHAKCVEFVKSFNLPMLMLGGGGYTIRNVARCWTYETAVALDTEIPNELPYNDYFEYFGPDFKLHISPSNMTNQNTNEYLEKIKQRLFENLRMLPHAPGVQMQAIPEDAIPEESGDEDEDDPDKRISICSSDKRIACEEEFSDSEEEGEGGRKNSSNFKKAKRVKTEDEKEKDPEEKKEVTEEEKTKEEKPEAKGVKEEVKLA
Description for NCI-H526: Antiproliferative activity against human NCI-H526 cells assessed as inhibition of cell growth incubated for 3 days by alamar blue assay

For orientation: GI50 means the concentration giving 50% growth inhibition. A word on the IC50: it is the point on the concentration scale where inhibition reaches its midpoint. Low readings indicate higher potency, high ones lower potency. `CN(CCN(C)C1CC1c1ccccc1)C(=O)Oc1ccc(CONC(=O)CCCCCCC(=O)Nc2ccccc2)cc1` (centres undefined) returned a GI50 in the series with MDA-MB-231 [1] of 34.3 µM. Further, the IC50 at 3 days in the series “in vitro [2]” is over 100 µM. Also, the Drug metabolism result in [3] is “Metabolite_Detected”. For the same compound, the Stability result in series [4] is recorded as “Stable”. Further, in series [5], the Ratio IC50 came to 19. Further, the selectivity ratio in “in vitro [6]” was over 2.92. The compound further yielded an IC50 in series [7] of 1290 nM.

In the case of `CNC(=O)c1cccc(-c2ccc(C3CC3N(C)CCN(C)C(=O)Oc3ccc(CONC(=O)CCCCCCC(=O)Nc4ccccc4)cc3)cc2)c1` (racemic), the GI50 was 4.49 µM with MDA-MB-231 [1] and 1000 nM in the series with NCI-H526. Moreover, in “in vitro [2]”, the IC50 at 3 days was over 100 µM. Moreover, the outcome with MDA-MB-231 [8], in the series on MDA-MB-231 [11] and in the series on MDA-MB-231 [14] was Active. Besides, the selectivity ratio in the series “in vitro [9]” is over 100; in the series “in vitro [6]”, over 22.3. In addition, the Ratio IC50 in series [10] is 40. The inhibition entry in series [12] and in [13] was “Active” each time. The compound also came in with an IC50 in series [7] of 126 nM.

For `CC(=O)Oc1ccc(CCl)cc1`, the results for the GI50 in the series with MDA-MB-231 [1] and in the series on NCI-H526 were 2.05 µM and 2020 nM, respectively.

As to `CN(CCN(C)C1CC1c1ccccc1)C(=O)ONC(=O)CCCCCCC(=O)Nc1ccccc1` (centres undefined), in series [15], the Stability entry was “Unstable”.

As to `CNC(=O)c1cccc(-c2ccc([C@H]3C[C@@H]3N(C)CCN(C)C(=O)Oc3ccc(CONC(=O)CCCCCCC(=O)Nc4ccccc4)cc3)cc2)c1`, half-maximal inhibition in [7] (IC50) was put at 457 nM.

`CNC(=O)c1cccc(-c2ccc([C@@H]3C[C@H]3N(C)CCN(C)C(=O)Oc3ccc(CONC(=O)CCCCCCC(=O)Nc4ccccc4)cc3)cc2)c1` gave an IC50 in series [7] of 444 nM. The IC50 values of the last two compounds are within 1.5-fold of each other.
